Test results as given in PMC3281204 (2011).

Test system: Modified anti-cocaine aptamer (DNA, aptamer) ATCTCGGGAGACAAGGATAAATCCTTCAATGAAGTGGGTCTCCC
Assay: fluorescence dequenching
Settings: apparent; displaced strand 5'-[…]-3'-dabcyl quencher oligo; cocaine 0-5 mM

K D: 134.4 ± 7.2 µM
Structure (SMILES): COC(=O)[C@H]1[C@@H](OC(=O)c2ccccc2)C[C@@H]2CC[C@H]1N2C
